Measured values published in paper PMC6801448, “The Antioxidant and Antiproliferative Activities of 1,2,3-Triazolyl-L-Ascorbic Acid Derivatives” (International Journal of Molecular Sciences, 2019).

Test system: MCF-7 cells
Assay: Annexin V apoptosis detection assay
Type: cell-based, Human
Method: A total of 2 × 10^4 MCF-7 cells were seeded into 8-well Nunc Lab-Tek II Chamber Slide system (Thermo Fischer Scientific, Waltham, MA, USA), and treated with compound 4e at 1 × IC50 and 2 × IC50 for 24 and 48 h. The assay (Annexin-V-FLUOS Staining kit, Roche Applied Science, Penzberg, Germany) was preformed according to the manufacturer protocol. Slides were analyzed by fluorescence microscopy (Zeiss Axio Observer Z1 Inverted Phase Contrast Fluorescent Microscope, Jena, Germany)).

[1] = MCF-7, 24 h, 6.72 µM (1 × IC50)
[2] = MCF-7, 24 h, 13.44 µM (2 × IC50)
[3] = MCF-7, 24 h, 1 × IC50, versus untreated cells
[4] = MCF-7, 48 h, 6.72 µM (1 × IC50)
[5] = MCF-7, 48 h, 13.44 µM (2 × IC50)

O=C1O[C@H]([C@@H](O)Cn2cc(-c3ccc(Br)cc3)nn2)C(O)=C1O [Compound 4e, 6-[4-(4-bromophenyl)-1,2,3-triazol-1-yl]-6-deoxy-L-ascorbic acid]
Early Apoptosis (%) [1]: 30.6%
Late Apoptosis (%) [1]: 6.4%
Necrosis (%) [1]: 0.8%
Early Apoptosis (%) [2]: 5.3%
Late Apoptosis (%) [2]: 38.1%
Necrosis (%) [2]: 15.9%
increase in early apoptotic cell population [3]: 12.4%
increase in late apoptotic cell population [3]: 2.0%
Early Apoptosis (%) [4]: 46.6%
Late Apoptosis (%) [4]: 4.2%
Necrosis (%) [4]: 0.8%
Early Apoptosis (%) [5]: 9.1%
Late Apoptosis (%) [5]: 2.3%
Necrosis (%) [5]: 0%
percentage of cells in early apoptosis higher than in untreated cells (MCF-7, 48 h, 1 × IC50, versus untreated cells): 35.2%
